In PubChem BioAssay AID1963861 (Molecular Pharmacology Branch, DTP, NCI, 2024):

Test system: 885724-159-R-J1-PDC KRAS PDC multicell spheroid viability
Experiment: Anticancer human tumor 885724-159-R-J1-PDC patient-derived pancreatic adenocarcinoma cell line growth inhibition [KRAS2]
Settings: for IC50: curve of first compound; for viability, T/C: stronger effect = lower value
Summary of the method: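 Combination screen of spheroid viability in tumor-cell co-cultures with endothelial (HUVEC) and mesenchymal stem cell stroma. Each agent was tested in half-log dilutions, topping at clinical Cmax or at 10 microM without a known Cmax.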

[1] = second compound 0.1 µM, first compound 0.0316 µM
[2] = second compound 0.1 µM, first compound 0.1 µM
[3] = second compound 0.1 µM, first compound 0.316 µM
[4] = second compound 0.1 µM, first compound 1 µM
[5] = second compound 0.1 µM, first compound 3.16 µM
[6] = second compound 0.1 µM, first compound 10 µM
[7] = second compound 0.316 µM, first compound 0.0316 µM
[8] = second compound 0.316 µM, first compound 0.1 µM
[9] = second compound 0.316 µM, first compound 0.316 µM
[10] = second compound 0.316 µM, first compound 1 µM
[11] = second compound 0.316 µM, first compound 3.16 µM
[12] = second compound 0.316 µM, first compound 10 µM
[13] = second compound 1 µM, first compound 0.0316 µM
[14] = second compound 1 µM, first compound 0.1 µM
[15] = second compound 1 µM, first compound 0.316 µM
[16] = second compound 1 µM, first compound 1 µM
[17] = second compound 1 µM, first compound 3.16 µM
[18] = second compound 1 µM, first compound 10 µM
[19] = second compound 3.16 µM, first compound 0.0316 µM
[20] = second compound 3.16 µM, first compound 0.1 µM
[21] = second compound 3.16 µM, first compound 0.316 µM
[22] = second compound 3.16 µM, first compound 1 µM
[23] = second compound 3.16 µM, first compound 3.16 µM
[24] = second compound 3.16 µM, first compound 10 µM
[25] = second compound 10 µM, first compound 0.0316 µM
[26] = second compound 10 µM, first compound 0.1 µM
[27] = second compound 10 µM, first compound 0.316 µM
[28] = second compound 10 µM, first compound 1 µM
[29] = second compound 10 µM, first compound 3.16 µM
[30] = second compound 10 µM, first compound 10 µM
[31] = second compound 0.1 µM, first compound 0.000316 µM
[32] = second compound 0.1 µM, first compound 0.001 µM
[33] = second compound 0.1 µM, first compound 0.00316 µM
[34] = second compound 0.1 µM, first compound 0.01 µM
[35] = second compound 0.316 µM, first compound 0.000316 µM
[36] = second compound 0.316 µM, first compound 0.001 µM
[37] = second compound 0.316 µM, first compound 0.00316 µM
[38] = second compound 0.316 µM, first compound 0.01 µM
[39] = second compound 1 µM, first compound 0.000316 µM
[40] = second compound 1 µM, first compound 0.001 µM
[41] = second compound 1 µM, first compound 0.00316 µM
[42] = second compound 1 µM, first compound 0.01 µM
[43] = second compound 3.16 µM, first compound 0.000316 µM
[44] = second compound 3.16 µM, first compound 0.001 µM
[45] = second compound 3.16 µM, first compound 0.00316 µM
[46] = second compound 3.16 µM, first compound 0.01 µM
[47] = second compound 10 µM, first compound 0.000316 µM
[48] = second compound 10 µM, first compound 0.001 µM
[49] = second compound 10 µM, first compound 0.00316 µM
[50] = second compound 10 µM, first compound 0.01 µM
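Also: spheroids exposed to agents for 7 days before readout.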

Row | SMILES | IC50 (second compound 0.1 µM) | IC50 (second compound 0.316 µM) | IC50 (second compound 1 µM) | IC50 (second compound 3.16 µM) | IC50 (second compound 10 µM) | viability, T/C [1] | viability, T/C [2] | viability, T/C [3] | viability, T/C [4] | viability, T/C [5] | viability, T/C [6] | viability, T/C [7] | viability, T/C [8] | viability, T/C [9] | viability, T/C [13] | viability, T/C [14] | viability, T/C [19] | viability, T/C [20] | viability, T/C [25] | viability, T/C [26] | also measured
1 | CC(C)NCC(C(=O)N1CCN(c2ncnc3c2C(C)CC3O)CC1)c1ccc(Cl)cc1 (stereo not given) + CNCc1ccccc1-c1csc(C(C)Nc2nc(C)nc3cc(OC)c(OC)cc23)c1 | > 10000 nM | > 10000 nM | 4190 nM | < 31.6 nM | < 31.6 nM | 87.4% | 82.9% | 76% | 70.8% | 76.8% | 57.1% | 87.4% | 77.3% | 67.7% | 94% | 76.9% | 1.32% | 0.9% | 0.17% | 0.16% | viability, T/C [10]: 72.7%; viability, T/C [11]: 78.2%; viability, T/C [12]: 53.1%; viability, T/C [15]: 64.9%; viability, T/C [16]: 66.3%; viability, T/C [17]: 68.8%; viability, T/C [18]: 26.3%; viability, T/C [21]: 1.56%; viability, T/C [22]: 0.7%; viability, T/C [23]: 0.43%; viability, T/C [24]: 0.59%; viability, T/C [27]: 0.17%; viability, T/C [28]: 0.31%; viability, T/C [29]: 0.16%; viability, T/C [30]: 0.23%
2 | CC(C)n1nc(-c2ccc3oc(N)nc3c2)c2c(N)ncnc21 + CNCc1ccccc1-c1csc(C(C)Nc2nc(C)nc3cc(OC)c(OC)cc23)c1 | > 100 nM | 42 nM | 58.3 nM | < 0.316 nM | < 0.316 nM | 54.6% | 52.4% | – | – | – | – | 50.2% | 45.6% | – | 50.2% | 48.5% | 3.15% | 1.32% | 0.23% | 0.34% | viability, T/C [31]: 87%; viability, T/C [32]: 81.1%; viability, T/C [33]: 73.6%; viability, T/C [34]: 65%; viability, T/C [35]: 100%; viability, T/C [36]: 75.3%; viability, T/C [37]: 70.7%; viability, T/C [38]: 60.6%; viability, T/C [39]: 85.8%; viability, T/C [40]: 76.2%; viability, T/C [41]: 69.2%; viability, T/C [42]: 60.6%; viability, T/C [43]: 2.37%; viability, T/C [44]: 11.2%; viability, T/C [45]: 2.11%; viability, T/C [46]: 1.36%; viability, T/C [47]: 0.19%; viability, T/C [48]: 0.31%; viability, T/C [49]: 0.18%; viability, T/C [50]: 0.18%
3 | CC1(C)CCC(CN2CCN(c3ccc(C(=O)NS(=O)(=O)c4ccc(NCC5CCOCC5)c([N+](=O)[O-])c4)c(Oc4cnc5[nH]ccc5c4)c3)CC2)=C(c2ccc(Cl)cc2)C1 + CNCc1ccccc1-c1csc(C(C)Nc2nc(C)nc3cc(OC)c(OC)cc23)c1 | 6720 nM | 5820 nM | 5300 nM | < 31.6 nM | < 31.6 nM | 96.3% | 89.6% | 88.8% | 88.5% | 82.7% | 32.6% | 86.6% | 90.3% | 85.7% | 101% | 93.6% | 1.12% | 0.55% | 0.42% | 1.23% | viability, T/C [10]: 91%; viability, T/C [11]: 82.4%; viability, T/C [12]: 21%; viability, T/C [15]: 89.1%; viability, T/C [16]: 82.3%; viability, T/C [17]: 82.9%; viability, T/C [18]: 12.1%; viability, T/C [21]: 0.55%; viability, T/C [22]: 0.79%; viability, T/C [23]: 0.62%; viability, T/C [24]: 1.03%; viability, T/C [27]: 0.37%; viability, T/C [28]: 0.2%; viability, T/C [29]: 0.17%; viability, T/C [30]: 0.2%
4 | COc1cc(Nc2ncc3c(n2)-c2ccc(Cl)cc2C(c2c(F)cccc2OC)=NC3)ccc1C(=O)O + CNCc1ccccc1-c1csc(C(C)Nc2nc(C)nc3cc(OC)c(OC)cc23)c1 | > 10000 nM | > 10000 nM | > 10000 nM | < 31.6 nM | < 31.6 nM | 102% | 98.5% | 90.5% | 92.7% | 94.7% | 101% | 102% | 92.7% | 89.4% | 94.8% | 87.7% | 2.11% | 2.66% | 0.16% | 0.37% | viability, T/C [10]: 88.5%; viability, T/C [11]: 81%; viability, T/C [12]: 87.7%; viability, T/C [15]: 73.6%; viability, T/C [16]: 81.4%; viability, T/C [17]: 75.6%; viability, T/C [18]: 83.5%; viability, T/C [21]: 1.13%; viability, T/C [22]: 1.16%; viability, T/C [23]: 4.03%; viability, T/C [24]: 12.1%; viability, T/C [27]: 0.43%; viability, T/C [28]: 0.34%; viability, T/C [29]: 0.16%; viability, T/C [30]: 0.35%
5 | COc1cc2nccc(Oc3ccc(NC(=O)C4(C(=O)Nc5ccc(F)cc5)CC4)cc3)c2cc1OC + CNCc1ccccc1-c1csc(C(C)Nc2nc(C)nc3cc(OC)c(OC)cc23)c1 | > 10000 nM | > 10000 nM | 1770 nM | < 31.6 nM | < 31.6 nM | 98.3% | 105% | 99.2% | 103% | 69.5% | 61.3% | 96.9% | 101% | 95.3% | 99% | 89.9% | 1.16% | 0.87% | 0.39% | 0.36% | viability, T/C [10]: 90%; viability, T/C [11]: 61.6%; viability, T/C [12]: 58.7%; viability, T/C [15]: 85.1%; viability, T/C [16]: 86.1%; viability, T/C [17]: 13.3%; viability, T/C [18]: 12.6%; viability, T/C [21]: 1.19%; viability, T/C [22]: 0.42%; viability, T/C [23]: 0.32%; viability, T/C [24]: 0.42%; viability, T/C [27]: 0.17%; viability, T/C [28]: 0.18%; viability, T/C [29]: 0.51%; viability, T/C [30]: 0.47%
6 | Cn1ncnc1[C@H]1c2n[nH]c(=O)c3cc(F)cc(c23)N[C@@H]1c1ccc(F)cc1 + CNCc1ccccc1-c1csc(C(C)Nc2nc(C)nc3cc(OC)c(OC)cc23)c1 | > 100 nM | > 100 nM | > 100 nM | < 0.316 nM | < 0.316 nM | 80.2% | 80% | – | – | – | – | 77.4% | 71.3% | – | 74.2% | 76.9% | 0.71% | 0.75% | 0.22% | 0.48% | viability, T/C [31]: 100%; viability, T/C [32]: 104%; viability, T/C [33]: 88.8%; viability, T/C [34]: 99.5%; viability, T/C [35]: 92.6%; viability, T/C [36]: 89.2%; viability, T/C [37]: 84.1%; viability, T/C [38]: 98%; viability, T/C [39]: 82.5%; viability, T/C [40]: 83.4%; viability, T/C [41]: 91.2%; viability, T/C [42]: 78.5%; viability, T/C [43]: 1.47%; viability, T/C [44]: 1.04%; viability, T/C [45]: 0.71%; viability, T/C [46]: 0.73%; viability, T/C [47]: 0.51%; viability, T/C [48]: 0.45%; viability, T/C [49]: 0.13%; viability, T/C [50]: 0.3%
